Test results published in PMC11593465, “Na^+ Translocation Dominates over H^+-Translocation in the Membrane Pyrophosphatase with Dual Transport Specificity” (International Journal of Molecular Sciences, 2024).

B1: Bv-mPPase (Bacteroides vulgatus Na+,H+-translocating mPPase) (Phocaeicola vulgatus ATCC 8482) (protein)
chain: METYLFWIVPIASLLALVLAWYFYKQMMLESEGTPTMEKIASYVRQGAMSYLKQQYKVVGLVFLGLVILFSIMAYGFNLQNPWVPIAFLTGGFFSGLSGFLGMKTATYASARTANAAQHSLNKGLRVAFRSGAVMGLVVVGLGLLDISFWYILLDYCIPTDALNPSAKLCVITTTMLTFGMGASTQALFARVGGGIYTKAADVGADLVGKVEAGIPEDDPRNPATIADNVGDNVGDVAGMGADLYESYCGSILATAALGAAAFIGSDDTVMQFKAVIAPMLIAAVGIVLSIIGIFAVRTKENAGMKELLGSLATGTNLSSVLIVVATFLILWALGLENWVNISFAVVVGLIVGIVIGRSTEYYTSQSYKPTQRLAESGKTGPATVIISGIGLGMVSTTIPVLAVVTGIILSYWLASGFDFANISMGLYGIGIAAVGMLSTLGITLATDAYGPIADNAGGNAEMSGLGKEVRKRTDALDSLGNTTAATGKGFAIGSAALTGLALLASYVEEIRIGLTRLGQTILELPNGITVDVHNASFTDYMLYYDVTLMNPKVLSGMFLGSMMAFLFCGLTMNAVGRAAAHMVEEVRRQFREIKGILTGEAEPDYARCVQISTKGAQREMVFPSLLAIIAPIATGLIFGVPGVIGLLIGGLSSGFVLAIFMANAGGAWDNAKKFIEEGNFGGKGSEVHKATVTGDTVGDPFKDTSGPSLNILIKLMSMVAIVMAGLTVAWSLF
notes: recombinant, expressed in E. coli C41(DE3), in inverted membrane vesicles; homodimer of approx. 70-kDa subunits; EC 7.1.3.1

Key:
[1] = biological target: T1, Da-mPPase (Na+-translocating mPPase of Desulfuromonas acetoxidans) (Desulfuromonas acetoxidans, UniProt Q1JY39); assay: PPi hydrolysis (continuous Pi assay) and pyranine Na+ transport assay, membrane vesicles; type: biochemical; conditions: 150 µM PPi, 5 mM MgSO4, 5 mM Na2SO4, 25 mM K2SO4, 100 mM Mops-KOH pH 7.2
T1 construct: gene hppA; recombinant, expressed in E. coli C41(DE3), in inverted membrane vesicles; homodimer of approx. 70-kDa subunits

[2] = biological target: T2, Dh-mPPase (H+-translocating mPPase of Desulfitobacterium hafniense) (Desulfitobacterium hafniense, UniProt B8FXV7); assay: PPi hydrolysis (continuous Pi assay) and pyranine H+ transport assay, membrane vesicles; type: biochemical; conditions: 150 µM PPi, 5 mM MgSO4, 5 mM Na2SO4, 25 mM K2SO4, 100 mM Mops-KOH pH 7.2
T2 construct: gene hppA; recombinant, expressed in E. coli C41(DE3), in inverted membrane vesicles; homodimer of approx. 70-kDa subunits
T2 sequence (B8FXV7 1-671): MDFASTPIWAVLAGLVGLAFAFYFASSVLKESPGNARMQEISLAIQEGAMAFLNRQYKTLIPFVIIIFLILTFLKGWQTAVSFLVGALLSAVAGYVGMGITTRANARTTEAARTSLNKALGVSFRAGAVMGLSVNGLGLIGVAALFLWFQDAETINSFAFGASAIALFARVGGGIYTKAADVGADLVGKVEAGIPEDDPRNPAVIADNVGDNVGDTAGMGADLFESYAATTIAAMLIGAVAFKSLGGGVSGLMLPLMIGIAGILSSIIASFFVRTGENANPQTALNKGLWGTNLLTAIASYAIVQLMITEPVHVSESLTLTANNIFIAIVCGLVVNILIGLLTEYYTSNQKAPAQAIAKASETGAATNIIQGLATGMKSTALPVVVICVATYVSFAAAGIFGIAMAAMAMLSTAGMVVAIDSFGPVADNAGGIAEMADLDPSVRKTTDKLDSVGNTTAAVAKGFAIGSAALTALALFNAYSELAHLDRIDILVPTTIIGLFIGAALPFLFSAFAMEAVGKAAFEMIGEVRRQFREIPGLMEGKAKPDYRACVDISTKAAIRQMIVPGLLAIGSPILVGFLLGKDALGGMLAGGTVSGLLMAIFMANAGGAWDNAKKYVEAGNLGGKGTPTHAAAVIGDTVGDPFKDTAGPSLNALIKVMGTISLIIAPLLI

[3] = substrate: O=P(O)(O)OP(=O)(O)O; assay: cells, lysate or membranes; type: biochemical, Phocaeicola vulgatus; conditions: total PPi, first (stronger) of two sites in the dimer, macroscopic constant, 4.8 mM free Mg2+, 10 mM Na+ (5 mM Na2SO4), 25 mM K2SO4, 100 mM Mops-KOH pH 7.2, 25 °C

T1 sequence (Q1JY39 1-668): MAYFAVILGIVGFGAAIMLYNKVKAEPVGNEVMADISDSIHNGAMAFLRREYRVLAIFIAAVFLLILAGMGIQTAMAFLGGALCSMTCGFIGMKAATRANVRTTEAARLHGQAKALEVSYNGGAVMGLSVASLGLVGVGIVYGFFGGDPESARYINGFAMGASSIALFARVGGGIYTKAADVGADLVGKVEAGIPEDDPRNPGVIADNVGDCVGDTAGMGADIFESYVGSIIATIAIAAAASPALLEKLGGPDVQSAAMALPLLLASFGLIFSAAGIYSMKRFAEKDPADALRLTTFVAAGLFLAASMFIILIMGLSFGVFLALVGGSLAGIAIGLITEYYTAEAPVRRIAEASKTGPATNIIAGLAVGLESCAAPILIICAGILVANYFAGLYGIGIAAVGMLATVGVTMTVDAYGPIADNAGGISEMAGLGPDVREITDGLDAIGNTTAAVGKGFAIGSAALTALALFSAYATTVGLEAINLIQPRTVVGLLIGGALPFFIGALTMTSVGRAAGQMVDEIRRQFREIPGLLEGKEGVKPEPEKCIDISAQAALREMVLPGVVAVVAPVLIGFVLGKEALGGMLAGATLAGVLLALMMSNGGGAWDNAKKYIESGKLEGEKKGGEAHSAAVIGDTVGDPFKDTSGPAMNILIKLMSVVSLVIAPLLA

Molecule | PPi hydrolysis (continuous Pi assay) and pyranine Na+ transport assay, membrane [1] | PPi hydrolysis (continuous Pi assay) and pyranine H+ transport assay, membrane v [2] | Km [3] [µM]
O=P(O)(O)OP(=O)(O)O [PPi] | Na^+-translocating Da-mPPase caused monensin-sensitive alkalinization of the vesicle lumen in response to PPi addition | the PPi addition to Dh-mPPase-containing vesicles progressively decreased pyranine fluorescence | –
B1 | – | – | 15 ± 1
